Patent US12416008B2, “Compositions and methods of use for small-molecule regulation of CRISPR-Cas9 activity using RNA aptamers” (priority 2019, dated 2025)

Tested on: galK 1 site
Assay: red/white colony screen of editing efficiency at the galK 1 site (CREATE recombineering)
Type: cell-based, E. coli MG1655
Settings: for Editing Efficiency 1 mM Theo: induced for 3 hours with 1 mM theophylline; for Editing Efficiency no Theo: no theophylline, 3 hours recovery
Protocol: Candidates from this enriched library were analyzed to inform an improved library design. After three selection/counterselection steps, cells were plated on M63 selection medium^20 and 150 colonies were picked. Each isolated candidate was then transformed into unedited E. coli to screen for theophylline-responsive constructs using a red/white colony assay to quantify the percentage of edited bacteria. Colonies with an unedited galK site appear red whereas edited colonies appear white (FIG. 5). The percentage of white colonies is considered the editing efficiency. Gene editing was induced as previously described with or without adding theophylline and the editing efficiencies were compared.
The protocol established by Garst et al was mainly followed. LB containing kanamycin and chloramphenicol was inoculated with MGλ9 cells and grown overnight at 30° C. The stationary culture was diluted 100 fold in LB, containing chloramphenicol, kanamycin and 0.2% arabinose and grown to an OD600=0.4-0.6 in 25 mL LB. The culture was heat-shocked in a shaking waterbath at 42° C. for 15 minutes to induce expression of the lambda-red proteins from pSIM5. Then, the culture was washed in two volumes of ice-cold deionized water, resuspended in 500 μl deionized water and 50 μl of the cell suspension was electroporated with 200 ng of a CREATE plasmid that encodes gRNA and homology template. The transformants were recovered in 4 mL of LB, containing 0.2% arabinose and optionally 1 mM theophylline or 1 μM anhydrotetracycline (ATC), and shaken at 37° C. for 3 hours before plating on MacConkey Agar. To estimate the number of cfu, aliquots were plated on LB agar 1 hour after transformation.
In order to assess the frequency of gene editing, a red/white screen was used to visualize the introduction of a stop codon into the galK gene by CREATE. The original CREATE protocol was used for inducing gene editing and after 3 hours of recovery (with or without the agRNA ligand) a series of dilutions of the cultures were plated on MacConkey Agar plates containing 1% galactose. Bacterial colonies with a mutated galK* site appear white on the plates, whereas non-edited colonies appear red. The editing efficiency could be calculated by dividing the number of edited colonies over the total number of colonies. By comparing the editing efficiency in presence versus absence of the ligand, a dynamic range of the in vivo activity could be determined.
When screening the enriched libraries for switchable constructs, the transformants were recovered in 4 mL of LB broth, a dilution series was plated for every construct and the experiment was only carried out once due to the large volume of colonies screened (˜250 in total). When the constructs A9 and GU19 were characterized in detail, triplica of the experiment were carried out.

Substance	gene editing activity and ligand dependence (in words) (with and without aptamer ligand)	Editing Efficiency 1 mM Theo [%]	Editing Efficiency no Theo [%]
3-methylxanthine aptamer: theophylline aptamer domain with C22A point mutation at the ligand-binding site; SEQ ID NO: 96 (AUACCAGCUUCGAAAGAAGCCAUUGGCAG; listed as RNA, chemistry not fully specified)	not activatable by theophylline	–	–
A8: agRNA cassette CGGGGGACAATAGG, SEQ ID NO: 12 (expressed or natural sequence)	–	82	2
A10: agRNA cassette GATGGGCCTCCACC, SEQ ID NO: 9 (expressed or natural sequence)	–	14	0
A14: agRNA cassette GGAGGTACGGTGCC, SEQ ID NO: 10 (expressed or natural sequence)	–	87	2
A26: agRNA cassette GGGGGGCCACGCGC, SEQ ID NO: 13 (expressed or natural sequence)	–	89	5
A34: agRNA cassette TAGTTTAAACCGTT, SEQ ID NO: 7 (expressed or natural sequence)	–	57	12
AU1: agRNA cassette AGGGGGCCTATAAT, SEQ ID NO: 15 (expressed or natural sequence)	–	2	0
AU2: agRNA cassette ACCAGGCCAAGTAT, SEQ ID NO: 16 (expressed or natural sequence)	–	4	0
AU3: agRNA cassette ACAAGGCCCATAAT, SEQ ID NO: 17 (expressed or natural sequence)	–	72	1
AU4: agRNA cassette AACAGGCCTTAATT, SEQ ID NO: 18 (expressed or natural sequence)	–	0	0
AU5: agRNA cassette ACTCGGCCTGAACT, SEQ ID NO: 19 (chemistry not given here)	–	43	0
AU6: agRNA cassette AAGGGGCCTATAAT, SEQ ID NO: 20 (expressed or natural sequence)	–	77	5
AU7: agRNA cassette AGTAGGCCTTTCAT, SEQ ID NO: 21 (expressed or natural sequence)	–	58	0
AU8: agRNA cassette ACGGGGCCTAATAT, SEQ ID NO: 22 (expressed or natural sequence)	–	48	0.3
AU9: agRNA cassette AAACGGCCCACTGT, SEQ ID NO: 23 (expressed or natural sequence)	–	22	1
AU10: agRNA cassette ATAGGGCCATCCAT, SEQ ID NO: 24 (expressed or natural sequence)	–	13	0
AU11: agRNA cassette AATAGGCCACTTAT, SEQ ID NO: 25 (expressed or natural sequence)	–	25	0
AU12: agRNA cassette AGAGGGCCGGGCGT, SEQ ID NO: 26 (expressed or natural sequence)	–	26	0
AU14: agRNA cassette AGTGGGCCAGCCTT, SEQ ID NO: 27 (expressed or natural sequence)	–	17	0
AU15: agRNA cassette ACCCGGCCATTCAT, SEQ ID NO: 28 (expressed or natural sequence)	–	5	0
AU16: agRNA cassette AACCGGCCCCGAGT, SEQ ID NO: 29 (expressed or natural sequence)	–	6	0
AU17: agRNA cassette AAAGGGCCAGGCAT, SEQ ID NO: 30 (expressed or natural sequence)	–	4	0

Substance	gene editing activity and ligand dependence (in words) (with and without aptamer ligand)	Editing Efficiency 1 mM Theo [%]	Editing Efficiency no Theo [%]
AU18: agRNA cassette AATAGGCCCAGACT, SEQ ID NO: 31 (expressed or natural sequence)	–	7	0
AU19: agRNA cassette AATAGGCCCGCAGT, SEQ ID NO: 32 (expressed or natural sequence)	–	10	0
AU20: agRNA cassette AAATGGCCGGCAAT, SEQ ID NO: 33 (expressed or natural sequence)	–	0	0
C2A2: agRNA cassette TAGTGGCTACCATG, SEQ ID NO: 14 (expressed or natural sequence)	–	84	5
G1B1: agRNA, 2×4 IL and upper stem cassette GTATCGCTTAAGCC, SEQ ID NO: 2 (expressed or natural sequence)	–	59	1
GC1: agRNA cassette GCTGGGCCCTTCCC, SEQ ID NO: 52 (expressed or natural sequence)	–	0	0
GC2: agRNA cassette GTCAGGCCTATACC, SEQ ID NO: 53 (expressed or natural sequence)	–	0	0
GC3: agRNA cassette GTCCGGCCCCACAC, SEQ ID NO: 54 (expressed or natural sequence)	–	12	0
GC4: agRNA cassette GGTCGGCCAGTAGC, SEQ ID NO: 55 (expressed or natural sequence)	–	1	0
GC5: agRNA cassette GTTGGGCCGCGGAC, SEQ ID NO: 56 (expressed or natural sequence)	–	0	0
GC6: agRNA cassette GATTGGCCAGCAAC, SEQ ID NO: 57 (expressed or natural sequence)	–	40	1
GC7: agRNA cassette GGGGGGCCGAATAC, SEQ ID NO: 58 (expressed or natural sequence)	–	71	1
GC8: agRNA cassette GGACGGCCCTGTGC, SEQ ID NO: 59 (expressed or natural sequence)	–	0	1
GC9: agRNA cassette GCAGGGCCTCTAAC, SEQ ID NO: 60 (expressed or natural sequence)	–	0	0
GC10: agRNA cassette GAGCGGCCACAACC, SEQ ID NO: 61 (expressed or natural sequence)	–	0	0
GC11: agRNA cassette GCGTGGCCCTTCCC, SEQ ID NO: 62 (chemistry not given here)	–	3	0
GC12: agRNA cassette GATAGGCCAGTTAC, SEQ ID NO: 63 (expressed or natural sequence)	–	36	1
GC13: agRNA cassette GGAAGGCCTTATAC, SEQ ID NO: 64 (expressed or natural sequence)	–	64	0
GC15: agRNA cassette GCATGGCCTACTCC, SEQ ID NO: 65 (expressed or natural sequence)	–	21	1
GC16: agRNA cassette GATAGGCCAACACC, SEQ ID NO: 66 (expressed or natural sequence)	–	65	1
GC17: agRNA cassette GACCGGCCCCCCGC, SEQ ID NO: 67 (expressed or natural sequence)	–	2	0
